The source of these data is US8318782B2, “Mitotic kinesin inhibitor” (Kyowa Hakko Kirin Co., Ltd., priority 2003, dated 2012).

The target of the test is T1, human Eg5 motor domain (Homo sapiens, UniProt P52732).
T1 construct: A plasmid expressing the motor domain of human Eg5 was constructed; made in house; host or cells: Escherichia coli BL21 (DE3)
T1 sequence (P52732 18-359 limits assumed): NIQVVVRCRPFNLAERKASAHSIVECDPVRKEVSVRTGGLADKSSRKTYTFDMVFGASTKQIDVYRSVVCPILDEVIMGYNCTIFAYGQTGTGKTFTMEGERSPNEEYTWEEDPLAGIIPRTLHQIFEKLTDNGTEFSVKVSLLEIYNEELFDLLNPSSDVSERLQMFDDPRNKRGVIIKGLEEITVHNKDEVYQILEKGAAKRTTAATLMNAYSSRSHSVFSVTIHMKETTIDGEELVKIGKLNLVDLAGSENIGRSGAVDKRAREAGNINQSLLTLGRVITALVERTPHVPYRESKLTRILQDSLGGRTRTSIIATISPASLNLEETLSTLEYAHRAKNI
The test is described as follows: Eg5 enzyme inhibition test (2) (ATPase activity, Eg5 motor domain). It is filed as biochemical. The conditions noted are these: human Eg5 motor domain purified sample, 30° C. for 30 minutes, absorbance at 360 nm. As for the experimental part: A recombinant human Eg5 motor domain protein was prepared by referring to the literature [Biochemistry, Vol. 35, p. […] A plasmid expressing the motor domain of human Eg5 was constructed, and transformed into Escherichia coli BL21 (DE3). The transformant was cultured at 25° C., and when OD600 reached 0.74, isopropyl-β-D-thiogalactoside was added at a final concentration of 0.5 mmol/L. The transformant was further cultured for 4 hours, and then the culture medium was centrifuged to collect the cells. The cells were suspended in a buffer and ultrasonicated, and then the sonicated solution was centrifuged to recover the supernatant. The supernatant was purified by cation exchange column chromatography to obtain a partially-purified sample. Furthermore, the partially purified sample was purified by gel filtration column chromatography to obtain a finally purified sample.
Measurement of the ATPase activity of Eg5 was carried out by referring to the literatures EEMBO Journal, Vol. 13, p. […] Solution A was dispensed into each well of a 96-well plate as 45 μL portions. Solution B was used to serially dilute a test compound. The diluted test compound solutions in a volume of 30 μL were mixed with Solution A added beforehand in each well of the 96-well plate to start the enzymatic reaction. The enzymatic reaction was performed at 30° C. for 30 minutes.

pIC50: −log10 of the molar value.

For `CC(C)(C)C(=O)NC1=NN(C(=O)C(C)(C)C)C(CNS(C)(=O)=O)(c2ccccc2)S1` (stereo not shown) [Compound 95], the pIC50 was at least 5.70.

`CCS(=O)(=O)NCC1(c2ccccc2)SC(NC(=O)C(C)(C)C)=NN1C(=O)C(C)(C)C` (stereo not shown) [Compound 97] showed a pIC50 of at least 5.70. Then `CC(C)C(=O)NC1=NN(C(=O)C(C)C)C(CCNS(C)(=O)=O)(c2ccccc2)S1` (stereo not shown) [Compound 100], with at least 5.70; and `CN(C)CCC1(c2ccccc2)SC(NC(=O)C(C)(C)C)=NN1C(=O)C(C)(C)C` (stereo not shown) [Compound 104], with at least 5.70. With `CC(C)(C)C(=O)NC1=NN(C(=O)C(C)(C)C)C(CCC(N)=O)(c2ccccc2)S1` (stereo not shown) [Compound 107] the figure was at least 5.70. Then `CC(C)(C)C(=O)NC1=NN(C(=O)C(C)(C)C)C(CCC(=O)NCCO)(c2ccccc2)S1` (stereo not shown) [Compound 111], with at least 5.70; and `CC(=O)NC1=NN(C(C)=O)C(C)(c2sccc2Cl)S1` (stereo not shown) [Compound 134], with at least 5.70; and `CC(=O)N1N=C(N2CCCC2=O)SC1(CNS(C)(=O)=O)c1ccccc1` (stereo not shown) [Compound 152], with at least 5.70. `CC(=O)N1N=C(N2CCCCC2=O)SC1(CNS(C)(=O)=O)c1ccccc1` (stereo not shown) [Compound 154] gave a pIC50 of at least 5.70. `C=CS(=O)(=O)NCC1(c2ccccc2)SC(NC(=O)C(C)(C)C)=NN1C(=O)C(C)(C)C` (stereo not shown) [Compound 171] gave a pIC50 of at least 5.70.

For the molecule `CC(=O)N1N=C(NC(=O)C(C)(C)C)SC1(CNS(=O)(=O)CCN(C)C)c1ccccc1` (stereo not shown) [Compound 174], the pIC50 was at least 5.70.

Take `CCNCCS(=O)(=O)NCC1(c2ccccc2)SC(NC(=O)C(C)(C)C)=NN1C(=O)C(C)(C)C` (stereo not shown) [Compound 176]: the pIC50 was at least 5.70. Then `CC(C)(C)C(=O)NC1=NN(C(=O)C(C)(C)C)C(CCN)(c2ccccc2)S1` (stereo not shown) [Compound 210], with at least 5.70; and `CC(C)(C)C(=O)NC1=NN(C(=O)C(C)(C)C)C(CNS(=O)(=O)CCCN)(c2ccccc2)S1` (stereo not shown) [Compound 221], with at least 5.70. With `CN(C)CCCS(=O)(=O)NCC1(c2ccccc2)SC(NC(=O)C(C)(C)C)=NN1C(=O)C(C)(C)C` (stereo not shown) [Compound 238] the figure was at least 5.70; with `CCN(C)CCS(=O)(=O)NCC1(c2ccccc2)SC(NC(=O)C(C)(C)C)=NN1C(=O)C(C)(C)C` (stereo not shown) [Compound 264], at least 5.70.

What is called pIC50 is the IC50 on a negative log10 scale, so that one unit is a factor of ten.
